The test system of test [1] is CCRF-CEM cells. In words: Growth inhibition of CCRF-CEM human leukemia cells, continuous exposure. In kind it is cell-based. Particulars: Table 8, continuous (0-120 hours) exposure, read-out: Growth inhibition EC50, CCRF-CEM.
The test system of test [2] is R30dm cells. In words: Growth inhibition of R30dm subline (decreased polyglutamate synthase). In kind it is cell-based. Particulars: Homo sapiens, Table 8, continuous (0-120 hours) exposure, read-out: Growth inhibition EC50, R30dm.
The target in test [3] is T1, CCRF-CEM human leukemia cell folylpolyglutamate synthetase (Homo sapiens, UniProt Q05932).
T1 construct: substrates for human leukemia cell CCRF-CEM folylpolyglutamate synthetase; endogenous in cells; host or cells: CCRF-CEM human leukemia cells
T1 sequence (Q05932 43-587): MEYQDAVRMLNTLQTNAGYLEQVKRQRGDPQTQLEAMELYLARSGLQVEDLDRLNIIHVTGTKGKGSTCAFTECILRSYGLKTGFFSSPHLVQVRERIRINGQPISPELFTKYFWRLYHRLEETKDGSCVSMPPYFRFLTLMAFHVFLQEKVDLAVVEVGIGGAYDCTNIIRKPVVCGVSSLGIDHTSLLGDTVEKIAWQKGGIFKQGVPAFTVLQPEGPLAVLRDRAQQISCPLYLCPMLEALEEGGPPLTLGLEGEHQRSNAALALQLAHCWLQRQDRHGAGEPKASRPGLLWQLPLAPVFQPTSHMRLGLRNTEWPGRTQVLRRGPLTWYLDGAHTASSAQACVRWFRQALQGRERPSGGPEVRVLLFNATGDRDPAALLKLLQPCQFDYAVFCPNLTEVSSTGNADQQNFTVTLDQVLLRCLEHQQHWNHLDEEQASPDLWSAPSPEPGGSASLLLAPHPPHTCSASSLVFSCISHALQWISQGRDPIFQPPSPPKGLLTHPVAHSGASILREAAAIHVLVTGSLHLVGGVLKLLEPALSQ
The test is described as follows: Substrate activity for CCRF-CEM folylpolyglutamate synthetase. Particulars: Table 10. In kind it is biochemical. As to the method:
Aminopterin is a classical 2,4-diamino antifolate substrate.
Compounds 33 and 34 were also evaluated for their substrate activity in CCRF-CEM human leukemia folylpolyglutamate synthetase; the compounds were compared against aminopterin.

The test system of test [4] is HOP-62. In kind it is cell-based. The settings on record: Homo sapiens; HOP-62, Non-Small Cell Lung Cancer.
In test [5] the test system is HCC-2998. In words: NCI in vitro anti-cancer activity, Colon Cancer. In kind it is cell-based. The settings on record: Homo sapiens; HCC-2998, Colon Cancer.
Test [6] deals with MCF7/ADR-RES. The test is described as follows: NCI in vitro anti-cancer activity, Breast Cancer. In kind it is cell-based. The settings on record: Homo sapiens.
Test [7] deals with L. casei DHFR (Lacticaseibacillus casei, UniProt P00381). The test is described as follows: Inhibition of Lactobacillus casei DHFR. In kind it is biochemical. Particulars: at […] 10^−5.
Chain of L. casei DHFR (P00381 whole entry): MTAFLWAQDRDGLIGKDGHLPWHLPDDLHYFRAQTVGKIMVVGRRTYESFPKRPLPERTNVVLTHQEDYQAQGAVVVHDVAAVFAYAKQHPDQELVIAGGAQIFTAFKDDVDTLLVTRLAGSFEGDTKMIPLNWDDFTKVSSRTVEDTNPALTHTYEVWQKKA

With `Nc1nc(N)c2c(CNc3ccc(C(=O)N[C@@H](CCC(=O)O)C(=O)O)cc3)c[nH]c2n1` [Compound 9], the concentration giving a half-maximal response (EC50) (commonly the midpoint of the concentration-response curve) in test [1] came out at 12.8 ± 2.2 nM; in test [2] it was 36 ± 1 nM. Moreover, the “Vmax(rel)” value in test [3] (relative to aminopterin) was 0.72 ± 0.07. The Km (commonly the substrate concentration at which the rate is half of its maximum) in test [3] (substrate for FPGS) was less than 1 µM. Also, the GI50 in test [4], in test [5] and in test [6] was less than 10 nM throughout.
`COc1ccc(CCc2cn(Cc3ccccc3)c3nc(N)nc(C)c23)cc1` [Compound 113-118]: the “% inhibition obtained at the stated concentration, L. casei DHFR” value in test [7] is reported as 0%.

These data come from patent US6962920B2, “Pyrimidine derivatives and methods of making and using these derivatives” (Duquesne University of the Holy Ghost, priority 1992, dated 2005).
